The test system of data set [1] is Quadruplex DNA. The data set can be described thus: Binding affinity to FAM/TAMRA-labelled parallel c-MYC Pu24T G4 DNA (unknown origin) assessed as thermal stabilization at 1 to 8 uM measured at 10 to 95 degreeC by FRET analysis. The format is nucleic-acid assay. As to conditions: dose 1-8 µM.
A further data set has as its system dsDNA. The data set can be described thus: Binding affinity to double stranded DNA (unknown origin) assessed as thermal stabilization at 1 to 8 uM measured at 10 to 95 degreeC by FRET analysis. It counts as nucleic-acid assay. Conditions: dose 1-8 µM.
In data set [2] the test system is Quadruplex DNA. In words: Binding affinity to FAM/TAMRA-labelled c-MYC Pu22 G4 DNA (unknown origin) assessed as thermal stabilization at 1 to 8 uM measured at 10 to 95 degreeC by FRET analysis. Conditions: dose 1-8 µM. The format is nucleic-acid assay.
The subject of data set [3] is Quadruplex DNA. In words: Binding affinity to FAM/TAMRA-labelled c-KIT1 G4 DNA (unknown origin) assessed as thermal stabilization at 1 to 8 uM measured at 10 to 95 degreeC by FRET analysis. It counts as nucleic-acid assay. As to conditions: dose 1-8 µM.
Data set [4] has as its system Quadruplex DNA. The data set can be described thus: Binding affinity to FAM/TAMRA-labelled c-KIT2 G4 DNA (unknown origin) assessed as thermal stabilization at 1 to 8 uM measured at 10 to 95 degreeC by FRET analysis. It counts as nucleic-acid assay. As to conditions: dose 1-8 µM.
The test system of data set [5] is Quadruplex DNA. In words: Binding affinity to FAM/TAMRA-labelled 21g G4 DNA (unknown origin) assessed as thermal stabilization at 1 to 8 uM measured at 10 to 95 degreeC by FRET analysis. As to conditions: dose 1-8 µM. It counts as nucleic-acid assay.
Data set [6] relates to Quadruplex DNA. The data set can be described thus: Binding affinity to FAM/TAMRA-labelled parallel 25ceb G4 DNA (unknown origin) assessed as thermal stabilization at 1 to 8 uM measured at 10 to 95 degreeC by FRET analysis. The format is nucleic-acid assay. Conditions: dose 1-8 µM.
Data set [7] relates to Quadruplex DNA. In words: Binding affinity to FAM/TAMRA-labelled antiparallel Bom17 G4 DNA (unknown origin) assessed as thermal stabilization at 1 to 8 uM measured at 10 to 95 degreeC by FRET analysis. It counts as nucleic-acid assay. As to conditions: dose 1-8 µM.
Data set [8] concerns Quadruplex DNA. In words: Binding affinity to FAM/TAMRA-labelled antiparallel TBA G4 DNA (unknown origin) assessed as thermal stabilization at 1 to 8 uM measured at 10 to 95 degreeC by FRET analysis. It counts as nucleic-acid assay. As to conditions: dose 1-8 µM.
Data set [9] relates to Quadruplex DNA. The data set can be described thus: Binding affinity to FAM/TAMRA-labelled parallel c-MYC Pu24T G4 DNA (unknown origin) assessed as thermal stabilization in the presence of 15 equivalents of double stranded DNA by FRET competition assay. The format is nucleic-acid assay.
Data set [10] has as its system Quadruplex DNA. The data set can be described thus: Binding affinity to FAM/TAMRA-labelled parallel KRAS G4 DNA (unknown origin) assessed as thermal stabilization in the presence of 15 equivalents of double stranded DNA by FRET competition assay. It counts as nucleic-acid assay.
For data set [11], the system named is Quadruplex DNA. The data set can be described thus: Binding affinity to FAM/TAMRA-labelled parallel c-MYC Pu24T G4 DNA (unknown origin) assessed as thermal stabilization by measuring change in melting temperature at 2 uM in the presence of 100 equivalents of double stranded DNA by FRET competition assay. It counts as nucleic-acid assay.
In data set [12] the test system is Quadruplex DNA. The data set can be described thus: Binding affinity to FAM/TAMRA-labelled parallel KRAS G4 DNA (unknown origin) assessed as thermal stabilization by measuring change in melting temperature at 2 uM in the presence of 100 equivalents of double stranded DNA by FRET competition assay. It counts as nucleic-acid assay.
Data set [13] deals with Quadruplex DNA. The data set can be described thus: Binding affinity to parallel c-MYC Pu24T G4 DNA (unknown origin) assessed as change in topology at 5 uM by CD spectra analysis. The format is nucleic-acid assay.
The subject of data set [14] is Quadruplex DNA. The data set can be described thus: Binding affinity to parallel c-MYC Pu24T G4 DNA (unknown origin) assessed as thermal stabilization by measuring change in melting temperature at 5 uM measured at 1:1 DNA to ligand ratio by CD spectra analysis. It counts as nucleic-acid assay.
The target in data set [15] is Quadruplex DNA. In words: Binding affinity to 5'-Cy5-labelled parallel c-MYC Pu24T G4 DNA (unknown origin) assessed as dissociation constant by MST analysis. It counts as nucleic-acid assay.
Data set [16] is described as follows: Antitumor activity against KPC mouse pancreatic cancer organoid expressing lentiviral modified GFP co-cultured with WT C57BL/6J mouse pancreatic stellate cells expressing mKate2 assessed as inhibition of cell growth incubated for 5 days by resazurin dye based fluorescence microscopic analysis. It counts as functional, tissue-based. Conditions: 120 h.
Data set [17] can be described thus: Cytotoxicity against wildtype C57BL/6J mouse cancer activated fibroblast cells assessed as inhibition of cell growth incubated for 5 days by resazurin dye based fluorescence microscopic analysis. It counts as toxicity. (In general: Resazurin is reduced to fluorescent resorufin, in cell work by metabolically active cells.)
Data set [18] concerns Quadruplex DNA. The data set can be described thus: Binding affinity to FAM/TAMRA-labelled parallel KRAS G4 DNA (unknown origin) assessed as thermal stabilization at highest concentration at 10 to 95 degreeC by FRET analysis. It counts as nucleic-acid assay.
Data set [19] relates to Quadruplex DNA. In words: Binding affinity to FAM/TAMRA-labelled parallel KRAS G4 DNA (unknown origin) assessed as thermal stabilization at lowest concentration at 10 to 95 degreeC by FRET analysis. It counts as nucleic-acid assay.

Molecules are shown by their SMILES. The source made the active and inactive calls. No cut-off for these calls is given here.

In general, ΔTm refers to the change in melting temperature against a reference sample. What is called Kd is a measure of binding affinity in units of concentration. The term IC50 denotes the concentration needed to halve the response being measured. In the case of `Cc1cc(NCCCN2CCN(C)CC2)nc(Nc2nc(C)c3ccc4c(c3n2)CCC4)n1`, the result in the data set with Quadruplex DNA [1], in the data set on Quadruplex DNA [2], with Quadruplex DNA [3], in the data set on Quadruplex DNA [4], in the data set with Quadruplex DNA [5] and with Quadruplex DNA [9] was Active. Further, in the data set with Quadruplex DNA [10], the result was Active. Further, the result with dsDNA, with Quadruplex DNA [6], in the data set on Quadruplex DNA [7], in the data set with Quadruplex DNA [8] and with Quadruplex DNA [13] was inactive. Besides, the ΔTm is 7 °C in the data set with Quadruplex DNA [11], 10 °C in the data set with Quadruplex DNA [12] and 5 °C in the data set with Quadruplex DNA [14]. Also, on Quadruplex DNA [15], the Kd came out at 265 nM. Further, in [16], the IC50 turned out to be 211 nM. Also, in data set [17], the IC50 at 5 days amounted to 264 nM.
On to `Cc1cc(NCCCN2CCCCC2)nc(Nc2nc(C)c3ccc4c(c3n2)CCC4)n1`, for which the outcome with Quadruplex DNA [1], with Quadruplex DNA [2], in the data set on Quadruplex DNA [3], in the data set on Quadruplex DNA [4], with Quadruplex DNA [5] and in the data set with Quadruplex DNA [9] was Active. Further, the result in the data set with Quadruplex DNA [10] was Active. The outcome in the data set with dsDNA, in the data set on Quadruplex DNA [6], in the data set with Quadruplex DNA [7], with Quadruplex DNA [8] and with Quadruplex DNA [13] was inactive. Moreover, the ΔTm in the data set on Quadruplex DNA [11] was found to be 7 °C; with Quadruplex DNA [12] it was 10 °C; in the data set on Quadruplex DNA [14], 4 °C. Also, the Kd on Quadruplex DNA [15] was found to be 285 nM. In addition, the IC50 in data set [16] is 793 nM. In addition, in data set [17], the IC50 at 5 days is above 500 nM.
As to `Cc1cc(NCCc2c[nH]c3ccccc23)nc(Nc2nc(C)c3ccc4c(c3n2)CCCC4)n1`, in the data set with Quadruplex DNA [18], the result was Active. Further, the result in the data set on Quadruplex DNA [19] and with dsDNA was inactive.
With `Cc1cc(NCCCN2CCCC2)nc(Nc2nc(C)c3ccc4c(c3n2)CCC4)n1`, the result in the data set on Quadruplex DNA [1], with Quadruplex DNA [2], with Quadruplex DNA [3], in the data set on Quadruplex DNA [4], with Quadruplex DNA [5] and in the data set on Quadruplex DNA [9] was Active. Moreover, in the data set on Quadruplex DNA [10], the outcome was Active. The outcome with dsDNA, in the data set on Quadruplex DNA [6], in the data set with Quadruplex DNA [7], in the data set on Quadruplex DNA [8] and in the data set with Quadruplex DNA [13] was inactive. The results for the ΔTm with Quadruplex DNA [11], in the data set on Quadruplex DNA [12] and with Quadruplex DNA [14] were 7 °C, 10 °C and 5 °C, respectively. The Kd on Quadruplex DNA [15] turned out to be 275 nM. Further, the IC50 in [16] worked out at 161 nM. Besides, the IC50 at 5 days in data set [17] is 2520 nM.
Consider `CCN(CC)CCCNc1cc(C)nc(Nc2nc(C)c3ccc4c(c3n2)CCC4)n1`, for which the result with Quadruplex DNA [1], in the data set with Quadruplex DNA [2], in the data set with Quadruplex DNA [3], with Quadruplex DNA [4], in the data set on Quadruplex DNA [5] and in the data set on Quadruplex DNA [9] was Active. The result with Quadruplex DNA [10] was Active. Further, the result in the data set on dsDNA, in the data set on Quadruplex DNA [6], in the data set on Quadruplex DNA [7], in the data set on Quadruplex DNA [8] and in the data set with Quadruplex DNA [13] was inactive. Further, the ΔTm with Quadruplex DNA [11] is 7 °C; with Quadruplex DNA [12], 10 °C; in the data set with Quadruplex DNA [14], 5 °C. In addition, the Kd at Quadruplex DNA [15] was found to be 360 nM. Further, in [16], the IC50 was found to be 193 nM. Moreover, the IC50 at 5 days in data set [17] was 2820 nM.
For the compound `Cc1cc(NCCc2c[nH]c3ccccc23)nc(Nc2nc(C)c3ccc4c(c3n2)CCC4)n1`, the result in the data set with Quadruplex DNA [18] was Active. In addition, the outcome with Quadruplex DNA [19] and in the data set with dsDNA was inactive.

These data come from ChEMBL document CHEMBL5321208, “The effect of side chain variations on quinazoline-pyrimidine G-quadruplex DNA ligands” (Eur J Med Chem, 2023).
